In the first assay the test system is anti-survivin T-cell response. The assay can be described thus: Phase I/II vaccination study, T cell response (IFN-g ELISPOT, +/-ICS). It counts as in vivo, human. The note with it: among the 16 reacting patients.
Turning to “TLGEFLKLDRERAKN (listed as Homo sapiens) [IMA-BIR-002]”, the “patients with induction of an anti-survivin T-cell response upon vaccination” value is reported as 12.

Staying with this assay, now noted: of the 19 patients, prostate carcinoma, s.c. vaccination.
With “TLGEFLKLDRERAKN (listed as Homo sapiens) [IMA-BIR-002]”, the “patients who reacted to the peptide (IFN-g ELISPOT, +/-ICS)” value turned out to be 16.

In the next assay the test system is CD8+ T cells. The assay can be described thus: In vitro priming of CD8+ T cells with pMHC/anti-CD28 coated beads, multimer staining readout. It counts as cell-based, human. The note with it: HLA-A*24 healthy donors, three stimulations, A*2402 multimer+ CD8+. The source says: In order to perform in vitro stimulations by artificial antigen presenting cells (aAPC) loaded with peptide-MHC complex (pMHC) and anti-CD28 antibody, we first isolated CD8 T cells from fresh HLA-A*24 leukapheresis products of healthy donors obtained from the Blood Bank Tuebingen.
CD8 T cells were either directly enriched from the leukapheresis product or PBMCs (peripheral blood mononuclear cells) were isolated first by using standard gradient separation medium (PAA, Cölbe, Germany). Isolated CD8 lymphocytes or PBMCs were incubated until use in T-cell medium (TCM) consisting of RPMI-Glutamax (Invitrogen, Karlsruhe, Germany) supplemented with 10% heat inactivated human AB serum (PAN-Biotech, Aidenbach, Germany), 100 U/ml Penicillin/100 μg/ml Streptomycin (Cambrex, Cologne, Germany), 1 mM sodium pyruvate (CC Pro, Oberdorla, Germany), 20 μg/ml Gentamycin (Cambrex). […] Isolation of CD8+ lymphocytes was performed by positive selection using CD8 MicroBeads (Miltenyi Biotec, Bergisch-Gladbach, Germany).
800.000 beads/200 μl were coated in 96-well plates in the presence of 600 ng biotin anti-CD28 plus 200 ng relevant biotin-pMHC (high density beads). Stimulations were initiated in 96-well plates by co-incubating 1×10^6 CD8+ T cells with 2×10^5 washed coated beads in 200 μl TCM supplemented with 5 ng/ml IL-12 (PromoCell) for 3-4 days at 37° C. Half of the medium was then exchanged by fresh TCM supplemented with 80 U/ml IL-2 and incubating was continued for 3-4 days at 37° C. This stimulation cycle was performed for a total of three times. […] For analysis, a BD LSRII SORP cytometer equipped with appropriate lasers and filters was used. Peptide specific cells were calculated as percentage of total CD8+ cells. Evaluation of multimeric analysis was done using the FlowJo software (Tree Star, Oregon, USA). In vitro priming of specific multimer+ CD8+ lymphocytes was detected by appropriate gating and by comparing to negative control stimulations.
With “AYLVYTDRL (listed as Homo sapiens) [PPAP2C-001]”, the “Positive donors/donors tested [%]” value was 100% and the “Positive wells/wells tested [%]” value was 54%.

Turning to “FYISPVNKL (listed as Homo sapiens) [AVL9-001]”, the “Positive donors/donors tested [%]” value is given as 100% and the “Positive wells/wells tested [%]” value came out at 50%.

For “HYKPTPLYF (listed as Homo sapiens) [SMC4-001]”, the “Positive donors/donors tested [%]” value amounted to 75% and the “Positive wells/wells tested [%]” value worked out at 9%.

For the sequence “LYQILQGIVF (listed as Homo sapiens) [CDC2-001]”, the “Positive donors/donors tested [%]” value was determined as 88% and the “Positive wells/wells tested [%]” value is given as 28%.

Regarding “NYLLYVSNF (listed as Homo sapiens) [MST1R-001]”, the “Positive donors/donors tested [%]” value was found to be 50% and the “Positive wells/wells tested [%]” value was 14%.

Take “NYLPFIMEL (listed as Homo sapiens) [UCHL5-001]”: the “Positive donors/donors tested [%]” value turned out to be 75% and the “Positive wells/wells tested [%]” value is reported as 14%.

For “RFLSGIINF (listed as Homo sapiens) [NUF2-002]”, the “Positive donors/donors tested [%]” value was found to be 50% and the “Positive wells/wells tested [%]” value amounted to 4%.

On to “SYIDVLPEF (listed as Homo sapiens) [MET-006]”, for which the “Positive donors/donors tested [%]” value stood at 63% and the “Positive wells/wells tested [%]” value is 22%.

As for “SYIIDPLNL (listed as Homo sapiens) [PROM1-001]”, the “Positive donors/donors tested [%]” value was found to be 83% and the “Positive wells/wells tested [%]” value was 26%.

Consider “SYNPLWLRI (listed as Homo sapiens) [ASPM-002]”, for which the “Positive donors/donors tested [%]” value came out at 63% and the “Positive wells/wells tested [%]” value was 31%.

In the case of “TYGNLLDYL (listed as Homo sapiens) [ABL1-001]”, the “Positive donors/donors tested [%]” value turned out to be 50% and the “Positive wells/wells tested [%]” value is recorded as 13%.

Consider “VWSDVTPLTF (listed as Homo sapiens) [MMP11-001]”, for which the “Positive donors/donors tested [%]” value was determined as 33% and the “Positive wells/wells tested [%]” value stood at 11%.

Consider “VYGIRLEHF (listed as Homo sapiens) [NUF2-001]”, for which the “Positive donors/donors tested [%]” value turned out to be 100% and the “Positive wells/wells tested [%]” value is on record as 25%.

Regarding “VYIEKNDKL (listed as Homo sapiens) [ERBB3-001]”, the “Positive donors/donors tested [%]” value is listed as 83% and the “Positive wells/wells tested [%]” value worked out at 15%.

Regarding “YYNAAGFNKL (listed as Homo sapiens) [UQCRB-001]”, the “Positive donors/donors tested [%]” value is given as 100% and the “Positive wells/wells tested [%]” value was 38%.

Another assay deals with HLA-DR broad antigens (HLA-DR1 to DR7). The assay is described as follows: ProImmune REVEAL MHC:peptide in vitro binding assay. More on the design: species or system human. The note with it: HLA-DR1, 3, 4 and 11; result in words. As for the experimental part:
The ProImmune REVEAL™ technology employs in vitro HLA-DR assembly assays to determine the on-rates for the MHC:peptide complex as one major determinant of the binding constant of individual peptides. The assay was performed by ProImmune (Oxford, UK). At a fixed time point, the amount of intact MHC:peptide complexes is measured and compared with the amount for a pass/fail control (relative weak binder). A strong, promiscuous HLA-DR binder is included as positive control. Values indicate amount of binding for the individual peptides and HLA-DR molecules relative to the pass/fail control.
In this assay, binding was compared to that of a pass/fail control binder, and to a positive control peptide for each HLA-DR antigen.
For “TLGEFLKLDRERAKN (listed as Homo sapiens) [IMA-BIR-002]”, the “in vitro binding to HLA-DR” value is reported as “promiscuous binding”.

The values are drawn from patent US9132177B2, “Composition of tumor-associated peptides and related anti-cancer vaccine for the treatment of gastric cancer and other cancers” (priority 2010, dated 2015).
